How the values were obtained:
[1] = test system: pigweed; assay: Test B pre/postemergence pigweed; format: in vivo, Amaranthus retroflexus
In short: (§1)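 Response is a visual 0-to-10 score relative to untreated plants, where 0 means no effect and 10 means complete control, taken twelve to sixteen days after application. Treatments went onto soil at planting and onto foliage of 1- to 4-leaf plants, using a surfactant-containing non-phytotoxic solvent.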

[2] = test system: soybean; assay: Test B pre/postemergence soybean; format: in vivo, Glycine max
In short: as §1

[3] = test system: purple nutsedge; assay: Test B pre/postemergence purple nutsedge; format: in vivo, Cyperus rotundus
In short: as §1

[4] = test system: giant foxtail; assay: Test B pre/postemergence giant foxtail; format: in vivo, Setaria faberii
In short: as §1

[5] = test system: cocklebur; assay: Test B pre/postemergence cocklebur; format: in vivo, Xanthium strumarium
In short: as §1

[6] = test system: smallflower flatsedge; assay: Test B flood test smallflower flatsedge; format: in vivo, Cyperus difformis
In short: (§2)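 Flood test on plants grown to the 2-leaf stage; treated plants kept in greenhouse twelve to sixteen days, then visually rated against controls on a 0 (no effect) to 10 (complete control) scale.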

[7] = test system: bedstraw; assay: Test B pre/postemergence bedstraw; format: in vivo, Galium aparine
In short: as §1

[8] = test system: morningglory; assay: Test B pre/postemergence morningglory; format: in vivo, Ipomoea hederacea
In short: as §1

[9] = test system: wild oat; assay: Test B pre/postemergence wild oat; format: in vivo, Avena fatua
In short: as §1

[10] = test system: blackgrass; assay: Test B pre/postemergence blackgrass; format: in vivo, Alopecurus myosuroides
In short: as §1

[11] = test system: wheat; assay: Test B pre/postemergence wheat; format: in vivo, Triticum aestivum
In short: as §1

[12] = test system: rice; assay: Test B flood test rice; format: in vivo, Oryza sativa
In short: as §2

[13] = test system: crabgrass; assay: Test B pre/postemergence crabgrass; format: in vivo, Digitaria sanguinalis
In short: as §1

[14] = test system: bamyardgrass; assay: Test B flood test barnyardgrass; format: in vivo, Echinochloa crus-galli
In short: as §2

[15] = test system: velvetleaf; assay: Test B pre/postemergence velvetleaf; format: in vivo, Abutilon theophrasti
In short: as §1

[16] = test system: surinam grass; assay: Test B pre/postemergence surinam grass; format: in vivo, Brachiaria decumbens
In short: as §1

[17] = Postemergence, Rate 125 g/ha, scale of 0 to 10 where 0 is no effect and 10 is complete control
[18] = Postemergence, Rate 250 g/ha, scale of 0 to 10, 0 is no effect, 10 is complete control
[19] = Postemergence, Rate 500 g/ha, scale of 0 to 10 where 0 is no effect and 10 is complete control
[20] = Postemergence, Rate 1000 g/ha, scale 0 to 10 (0 no effect, 10 complete control)
[21] = Preemergence, Rate 125 g/ha, scale of 0 to 10 where 0 is no effect and 10 is complete control
[22] = Preemergence, Rate 500 g/ha, scale of 0 to 10 where 0 is no effect and 10 is complete control
[23] = Rate 1000 g/ha, Preemergence, scale 0 to 10 (0 no effect, 10 complete control)
[24] = Pre-emergence, Rate 1000 g/ha, scale 0 to 10 (0 no effect, 10 complete control)
[25] = Rate 125 g/ha, under heading Pre-emergence, flood test species, visual evaluation after twelve to sixteen days
[26] = Rate 250 g/ha, Pre-emergence (flood test species), scale 0 to 10, 0 is no effect, 10 is complete control
[27] = Rate 500 g/ha, Pre-emergence section of Table B, 0 to 10 scale (0 no effect, 10 complete control)

C=CCn1c(=O)on(C(=O)N(c2c(C)cccc2C)C(C)COC)c1=O (stereo not shown) [Compound 600]
Plant response rating, Redroot pigweed [1, 17]: 0 | Redroot pigweed plant response rating [1, 18]: 0 | Plant response rating, Redroot pigweed [1, 19]: 0 | Redroot pigweed plant response rating [1, 20]: 0 | Redroot pigweed plant response rating [1, 21]: 0 | Plant response rating, Redroot pigweed [1, 22]: 0 | Plant response rating, Redroot pigweed [1, 23]: 0 | Plant response rating, Soybean [2, 17]: 2 | Soybean plant response rating [2, 18]: 3 | Plant response rating, Soybean [2, 19]: 4 | Soybean plant response rating [2, 20]: 4 | Soybean plant response rating [2, 21]: 0 | Plant response rating, Soybean [2, 22]: 0 | Plant response rating, Soybean [2, 23]: 3 | Plant response rating, Nutsedge [3, 17]: 0 | Nutsedge plant response rating [3, 18]: 0 | Plant response rating, Nutsedge [3, 19]: 0 | Nutsedge plant response rating [3, 20]: 0 | Nutsedge plant response rating [3, 21]: 0 | Plant response rating, Nutsedge [3, 22]: 0 | Plant response rating, Nutsedge [3, 23]: 0 | Plant response rating, Giant foxtail [4, 17]: 0 | Giant foxtail plant response rating [4, 18]: 0 | Plant response rating, Giant foxtail [4, 19]: 3 | Giant foxtail plant response rating [4, 20]: 3 | Giant foxtail plant response rating [4, 21]: 0 | Plant response rating, Giant foxtail [4, 22]: 0 | Plant response rating, Giant foxtail [4, 23]: 0 | Plant response rating, Cocklebur [5, 17]: 0 | Cocklebur plant response rating [5, 18]: 0 | Plant response rating, Cocklebur [5, 19]: 0 | Cocklebur plant response rating [5, 20]: 0 | Cocklebur plant response rating [5, 21]: 0 | Cocklebur plant response rating (0 to 10 scale) ([5]; Preemergence, Rate 250 g/ha): 0 | Plant response rating, Cocklebur [5, 22]: 0 | Plant response rating, Cocklebur [5, 23]: 0 | S. Flatsedge plant response rating [6, 24]: 0 | S. Flatsedge plant response rating (0 to 10 scale, 0 is no effect, 10 is complete control) [6, 25]: 0 | S. Flatsedge plant response rating [6, 26]: 0 | S. Flatsedge plant response rating [6, 27]: 0 | Plant response rating, Bedstraw [7, 19]: 0 | Bedstraw plant response rating [7, 20]: 0 | Bedstraw plant response rating (0 to 10 scale) ([7]; Preemergence, Rate 250 g/ha): 0 | Bedstraw plant response rating [7, 22]: 0 | Plant response rating, Bedstraw [7, 23]: 0 | Plant response rating, Morningglory [8, 17]: 0 | Morningglory plant response rating [8, 18]: 0 | Plant response rating, Morningglory [8, 19]: 0 | Morningglory plant response rating [8, 20]: 0 | Morningglory plant response rating [8, 21]: 0 | Plant response rating, Morningglory [8, 22]: 0 | Plant response rating, Morningglory [8, 23]: 0 | Plant response rating, Wild oats [9, 17]: 0 | Wild oats plant response rating [9, 18]: 0 | Plant response rating, Wild oats [9, 19]: 0 | Wild oats plant response rating [9, 20]: 0 | Wild oats plant response rating [9, 21]: 0 | Plant response rating, Wild oats [9, 22]: 0 | Plant response rating, Wild oats [9, 23]: 0 | Plant response rating, Blackgrass [10, 17]: 0 | Blackgrass plant response rating [10, 18]: 0 | Plant response rating, Blackgrass [10, 19]: 0 | Blackgrass plant response rating [10, 20]: 0 | Blackgrass plant response rating [10, 21]: 0 | Blackgrass plant response rating (0 to 10 scale) ([10]; Preemergence, Rate 250 g/ha): 0 | Blackgrass plant response rating [10, 22]: 0 | Plant response rating, Blackgrass [10, 23]: 0 | Plant response rating, Wheat [11, 17]: 0 | Wheat plant response rating [11, 18]: 0 | Plant response rating, Wheat [11, 19]: 0 | Wheat plant response rating [11, 20]: 0 | Wheat plant response rating [11, 21]: 0 | Plant response rating, Wheat [11, 22]: 0 | Plant response rating, Wheat [11, 23]: 0 | Rice plant response rating [12, 24]: 0 | Rice plant response rating (0 to 10 scale, 0 is no effect, 10 is complete control) [12, 25]: 0 | Rice plant response rating [12, 26]: 0 | Rice plant response rating [12, 27]: 0 | Plant response rating, Crabgrass [13, 17]: 1 | Plant response rating, Crabgrass [13, 19]: 3 | Crabgrass plant response rating [13, 20]: 3 | Crabgrass plant response rating [13, 21]: 0 | Plant response rating, Crabgrass [13, 22]: 0 | Plant response rating, Crabgrass [13, 23]: 0 | Barnyardgrass plant response rating [14, 24]: 0 | Barnyardgrass plant response rating (0 to 10 scale, 0 is no effect, 10 is complete control) [14, 25]: 0 | Barnyardgrass plant response rating [14, 26]: 0 | Barnyardgrass plant response rating [14, 27]: 0 | Plant response rating, Velvetleaf [15, 17]: 0 | Velvetleaf plant response rating [15, 18]: 0 | Plant response rating, Velvetleaf [15, 19]: 0 | Velvetleaf plant response rating [15, 20]: 0 | Velvetleaf plant response rating [15, 21]: 0 | Plant response rating, Velvetleaf [15, 22]: 0 | Plant response rating, Velvetleaf [15, 23]: 0 | Plant response rating, B. signalgrass [16, 17]: 0 | B. signalgrass plant response rating [16, 18]: 0 | Plant response rating, B. signalgrass [16, 19]: 0 | B. signalgrass plant response rating [16, 20]: 0 | B. signalgrass plant response rating [16, 21]: 0 | B. signalgrass plant response rating (0 to 10 scale, 0 is no effect, 10 is complete control) ([16]; Preemergence, Rate 250 g/ha): 0 | B. signalgrass plant response rating [16, 22]: 0 | Plant response rating, B. signalgrass [16, 23]: 0

Source: patent publication US6737383B1, “Herbicidal oxadiazolidines” (priority 1999, dated 2004)
